# From US10766888B1, “HMOX1 inducers” (Mitobridge Inc., priority 2019, dated 2020)
# Where a name gives a salt, the structure may show the parent alone. Read-outs that look alike come from different tables or passages of the source.
# Tests used:
# FTH1 = FTH1 mRNA expression in HepG2 cells (Nanostring); assay type: cell-based, human; settings: 24 hours treatment
# Description: RNA Isolation and Quantification of Gene Expression
# HepG2 cells were seeded at 250 k/well in 12-well tissue culture plates coated with collagen (collagen I, rat tail (thin plate coating); ENZO Life Sciences) for approximately 24 hours. The seeded cells were then treated with dose titration of the compound of Example 17 or dimethyl fumarate (DMF) (a Nrf2 activator; Fisher Scientific) via media change, with biological triplicates performed for each treatment. After approximately 24 hours of treatment, cells were visually inspected to confirm that no toxicity occurred with compound treatment. The treated cells were washed with PBS, aspirated, parafilmed and frozen at −80° C. prior to RNA isolation. RNA was isolated using Machery-Nagel isolation kit (NucleoSpin® RNA: catalog 740955.250) and then quantitated using ThermoFisher Nanodrop.
# RNA was diluted for Nanostring gene expression analysis. The diluted RNA at an input of 200 ng RNA was run on a Nanostring instrument, which was supported with nCounter® SPRINT Profiler System and nSolver4.0 Software, nCounter® SPRINT Cartridge, nCounter® SPRINT Reagent Pack, and nCounter® SPRINT Hybridization Buffer. Analysis was done manually using raw data obtained from nSolver4.0 Software. CLTC, POLR2A, RPL27 and TBP were used as reference genes for normalization. Data was graphed as fold change compared to DMSO treatment. […]
# [1] = test system: Human Heme Oxygenase-1 (HMOX-1); test: ELISA assay to measure human heme oxygenase-1 (HMOX-1) in HepG2 lysate; assay type: cell-based
# Outline: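 HO-1 protein levels were read as fold change over DMSO-treated cells, with EC50 derived from these values. Quantitation used a chemiluminescent streptavidin-HRP capture ELISA, calibrated with an HO-1 standard series starting at 20 ng/ml, run at 20 °C. Samples were HepG2 lysates made with Triton X100/EDTA buffer and diluted 1:20.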
# Human BACH1 = biological target: T1, Human BACH1 (Homo sapiens, UniProt O14867); test: Microscale thermophoresis (MST) assay / Bach 1 binding assay; settings: 10 nM fluorescently labeled BACH1(aa179-736), 25° C.
# T1 construct: 10×HIS-GP-BACH1(aa179-736)-Thrombin-FLAG; 10xHis (N); GP linker (Gly-Pro) (N); Thrombin cleavage site (C); FLAG (C); host or cells: Sf9 insect cells
# T1 sequence (O14867 179-736): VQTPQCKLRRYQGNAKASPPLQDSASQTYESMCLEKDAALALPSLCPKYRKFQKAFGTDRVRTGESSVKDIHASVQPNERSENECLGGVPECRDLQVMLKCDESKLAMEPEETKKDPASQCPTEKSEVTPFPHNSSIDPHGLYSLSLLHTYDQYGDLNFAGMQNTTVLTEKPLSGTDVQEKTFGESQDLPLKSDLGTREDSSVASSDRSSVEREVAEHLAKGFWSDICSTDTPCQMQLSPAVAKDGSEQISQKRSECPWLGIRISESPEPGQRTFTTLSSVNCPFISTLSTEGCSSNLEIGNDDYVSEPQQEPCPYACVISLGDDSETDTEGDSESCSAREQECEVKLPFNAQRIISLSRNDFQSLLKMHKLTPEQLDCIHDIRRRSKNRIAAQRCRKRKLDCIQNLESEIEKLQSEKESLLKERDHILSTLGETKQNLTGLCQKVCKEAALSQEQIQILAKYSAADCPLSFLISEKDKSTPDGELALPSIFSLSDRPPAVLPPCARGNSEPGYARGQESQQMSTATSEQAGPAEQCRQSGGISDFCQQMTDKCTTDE
# Description: Example 146. Microscale Thermophoresis (MST) Assay/Bach 1 Binding Assay
# Outline of Protein Expression/Production
# Human BACH1 (construct-ID: 10×HIS-GP-BACH1(aa179-736)-Thrombin-FLAG) was expressed in Sf9 insect cells. Protein purification was performed using affinity chromatography, followed by size-exclusion chromatography. Quality of resulting protein was judged using SDS-PAGE analysis.
# The MST technology is based on measurement of protein movement along a temperature gradient. Thereby, fluorescently labeled protein is loaded into capillaries, where an infrared laser heats a small volume. Before and during heating, fluorescent intensity is measured at the site of irradiation and the loss of fluorescence in the IR laser focus is quantified.
# Two major factors contribute to change of fluorescence signal. First of all, the so-called TRIC (Temperature Related Intensity Change) effect is caused by the temperature-dependency of fluorophore's quantum yield. Herein, the extent of the temperature dependence depends on the chemical environment, which may be changed by the binding of a ligand (e.g. compound, peptide) to the target. Moreover, Kd value between ligand and target can depend on temperature. Second, thermophoresis, which is defined as movement of fluorescent molecules along temperature gradient, is a major contributor to change of fluorescence. Hereby, protein movement along the gradient depends on hydrodynamic radius, charge and hydration shell. These properties can change upon association of the labeled protein with another species, e.g. compound. Thereby, MST detects the differences in protein movement with increasing ligand concentration: from this, the fraction of ligand bound protein and a Kd value can be determined.
# For Kd determination of compounds binding BACH1, the following protocol was applied: 10×HIS-GP-BACH1(aa179-736)-Thrombin-FLAG (expressed and purified at Proteros) was fluorescently labeled via its lysine-residues (2nd gen NHS-NT.647 dye).
# Experiments were performed using the experimental device Monolith NT.115 Pico, NanoTemper Technologies, with MST power set to medium and excitation power set to 2% at a reaction temperature of 25° C.
# 10 nM fluorescently labeled BACH1 was applied to reaction buffer containing 50 mM HEPES pH 8.0, 100 mM NaCl, 5% glycerol, 0.05% Tween20 and 1 mM DTT in a reaction volume of 8 μL using Monolith NT.115 Premium Capillaries. Compounds were applied at a maximal concentration of 103 μM with 15 subsequent factor 2 dilutions.
# Kinetic solubility = assay type: physicochemical; settings: Dulbecco's phosphate buffer saline (DPBS), aqueous buffer, kinetic from dmso stock, DPBS pH 7.4, 25° C., 200 μM test compound
# Outline: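 Compound from 10 mM DMSO stock diluted to 200 μM final in DPBS pH 7.4 and, separately, in DMSO, in duplicate. Shaken 16 h at 25 °C, then centrifuged 20 min at 25 °C. Supernatant analysed by HPLC.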
# hERG channel = hERG channel (Homo sapiens, UniProt Q12809); test: hERG manual patch clamp assay; assay type: cell-based; settings: HEK 293 cells stably expressing hERG channel, pH 7.35, 10 μM compound
# Chain of hERG channel (Q12809 whole entry): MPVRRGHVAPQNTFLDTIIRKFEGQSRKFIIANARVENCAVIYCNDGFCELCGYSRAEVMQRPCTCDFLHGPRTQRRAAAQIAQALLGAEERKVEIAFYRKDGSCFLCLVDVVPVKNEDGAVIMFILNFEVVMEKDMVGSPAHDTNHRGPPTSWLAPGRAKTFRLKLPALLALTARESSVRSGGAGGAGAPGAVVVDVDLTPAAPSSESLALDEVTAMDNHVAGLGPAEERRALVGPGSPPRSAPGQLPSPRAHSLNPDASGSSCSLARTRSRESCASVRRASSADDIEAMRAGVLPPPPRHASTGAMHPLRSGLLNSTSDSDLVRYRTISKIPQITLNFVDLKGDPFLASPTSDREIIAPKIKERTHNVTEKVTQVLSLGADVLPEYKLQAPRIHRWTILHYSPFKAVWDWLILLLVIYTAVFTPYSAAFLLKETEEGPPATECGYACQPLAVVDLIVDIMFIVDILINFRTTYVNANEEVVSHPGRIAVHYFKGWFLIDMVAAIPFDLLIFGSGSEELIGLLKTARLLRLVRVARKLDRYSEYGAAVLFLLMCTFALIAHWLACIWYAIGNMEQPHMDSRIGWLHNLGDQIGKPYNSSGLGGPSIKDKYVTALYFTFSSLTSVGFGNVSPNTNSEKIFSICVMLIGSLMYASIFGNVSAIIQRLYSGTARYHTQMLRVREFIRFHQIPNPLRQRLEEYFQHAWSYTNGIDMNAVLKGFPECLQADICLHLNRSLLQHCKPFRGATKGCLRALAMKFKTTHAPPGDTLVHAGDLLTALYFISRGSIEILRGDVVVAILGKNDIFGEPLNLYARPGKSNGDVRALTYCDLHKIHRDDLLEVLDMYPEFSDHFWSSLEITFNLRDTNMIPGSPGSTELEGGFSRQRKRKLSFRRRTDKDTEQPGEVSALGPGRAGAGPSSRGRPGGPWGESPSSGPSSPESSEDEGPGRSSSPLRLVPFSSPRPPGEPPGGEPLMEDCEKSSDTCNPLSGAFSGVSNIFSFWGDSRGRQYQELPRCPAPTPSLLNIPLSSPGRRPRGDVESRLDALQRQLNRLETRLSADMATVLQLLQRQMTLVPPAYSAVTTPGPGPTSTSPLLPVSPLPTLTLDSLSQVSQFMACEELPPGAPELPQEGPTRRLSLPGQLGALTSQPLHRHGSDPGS
# Description: Cell Lines and Cell Culture
# HEK 293 cell line stably expressing hERG channel (Cat # K1236) was purchased from Invitrogen. The cells were cultured in 85% DMEM, 10% dialyzed FBS, 0.1 mM NEAA, 25 mM HEPES, 100 U/mL Penicillin-Streptomycin and 5 μg/mL Blasticidin and 400 μg/mL Geneticin. Cells were split using TrypLE™ Express about three times a week, and maintained between ˜40% to ˜80% confluence. Before the assay, the cells were transferred onto the coverslips at 5×10^5 cells/per 6 cm cell culture dish and induced with doxycycline at 1 μg/mL for 48 hours.
# • 1) External solution (in mM): 132 NaCl, 4 KCl, 3 CaCl2, 0.5 MgCl2, 11.1 glucose, and 10 HEPES (pH adjusted to 7.35 with NaOH) • 2) Internal solution (in mM): 140 KCl, 2 MgCl2, 10 EGTA, 10 HEPES and 5 MgATP (pH adjusted to 7.35 with KOH) • 3) hERG currents were tested in presence of 10 μM compound concentration with final concentration of DMSO of 0.1%. Experimental Procedure • 1) Removed the coverslip from the cell culture dish and placed it on the microscope stage in bath chamber. • 2) Located a desirable cell using the 10× objective. Located the tip of the electrode under the microscope using the 10× objective by focusing above the plane of the cells. Once the tip was in focus, advanced the electrode downwards towards the cell using the coarse controls of the manipulator, while simultaneously moving the objective to keep the tip in focus. • 3) When directly over the cell, switched to the 40× objective and used the fine controls of the manipulator to approach the surface of the cell in small steps. • 4) Applied gentle suction through the side-port of the electrode holder to form a gigaohm seal. • 5) Used the Cfast to remove the capacity current that was in coincidence with the voltage step. Obtained the whole cell configuration by applying repetitive, brief, strong suction until the membrane patch ruptured. • 6) Set membrane potential to −60 mV at this point to ensure that hERG channels were not • open. The spikes of capacity current should then be cancelled using the Cslow on the amplifier. 7) Set holding potential to −90 mV for 500 ms; recorded current at 50 kHz and filtered at 10 kHz. Leaking current was tested at −80 mV for 500 ms. • 8) The hERG current was elicited by depolarizing at +30 mV for 4.8 seconds and then the voltage was taken back to −50 mV for 5.2 seconds to remove the inactivation and observe the deactivating tail current. The maximum amount of tail current size was used to determine hERG current amplitude. • 9) Recorded current for 120 seconds to assess the current stability. Only stable cells with recording parameters above threshold were applied for the compound administrations. • 10) Firstly vehicle control was applied to the cells to establish the baseline. […] In order to ensure the good performance of cultured cells and operations, the positive control, Dofetilide, with 5 dose concentration was also used to test the same batch of cells. Data Analysis
# The following criteria were used to determine data acceptability. • 1) Initial seal resistance >1 GΩ; • 2) Leak currents <50% of the control peak tail currents at any time; • 3) The peak tail amplitude >250 pA; • 4) Membrane resistance Rm>500 MΩ; • 5) Access resistance (Ra)<10 MΩ; • 6) Apparent run-down of peak current <2.5% per min.
# Data that met the above criteria for hERG current quality were further analyzed as the following steps. • 1) Percent hERG current inhibition was calculated using the following equation. • Note: PatchMaster or Clampfit software was used to extract the peak current from the original data.
# [formula] • 2) The dose response curve of test compounds was plotted with percentage of hERG current inhibition against the concentration of test compounds using Graphpad Prism 6.0, and fit to a sigmoid dose-response curve with a variable slope.
# [2] = PD study: compound concentration in mouse liver; assay type: in vivo, C57BL/6 mice; settings: male, C57BL/6, mouse, 50 mg/kg, 50 mpk oral
# Description: 9-10 week old male C57BL/6 mice were dosed orally with 50 mg/kg of vehicle or compound formulated in 5% w/v tween 80 and 0.5% methyl cellulose. At indicated time points (3 and 6 hours or or 4 and 8 hours post-dosing as shown in the results below), whole blood was collected, animal was sacrificed and liver was collected. Blood samples were transferred to vials containing 4 μL of 10% w/v EDTA, centrifuged at 6000 rpm for 8 in below 10° C. to obtain plasma. Samples were frozen and later processed for HMOX1 protein levels as indicated below: […]
# [3] = PK study: plasma and brain levels in mice; assay type: in vivo, C57BL/6 mice; settings: mouse, plasma, measured in a previous study
# [4] = human HMOX1 protein level in HepG2 lysate, * = average of 2 or more EC50 determinations, NA = Not Active, read-out: EC50
SMILES,"EC50 [1, 4] [nM]",Kd (Human BACH1) [nM],solubility at 16 h (Kinetic solubility) [µM],other results
"COC(=O)/C=C/C(=O)OC [DMF, dimethyl fumarate, reference compound]",,,,FTH1 expression fold increase (in words) (FTH1): comparable fold increases
"COCCONC(=O)c1ccc2c(c1)nc(Nc1nc3ccc(C(F)(F)F)cc3o1)n2C [Example 124, N-(2-methoxyethoxy)-1-methyl-2-((6-(trifluoromethyl)benzo[d]oxazol-2-yl)amino)-1H-benzo[d]imidazole-5-carboxamide]",200,200,< 2,

# More lines, main results first:
"EC50 [1, 4] [nM]",Kd (Human BACH1) [nM],solubility at 16 h (Kinetic solubility) [µM],SMILES,other results
,560,,"COCCNC(=O)c1ccc2c(c1)nc(Nc1nc3ncccc3o1)n2C [Example 112, N-(2-methoxyethyl)-1-methyl-2-(oxazolo[4,5-b]pyridin-2-ylamino)-1H-benzo[d]imidazole-5-carboxamide]",
900,,,"Cn1c(Nc2nc3ccc(OC(F)(F)F)cc3s2)nc2cc(C(=O)NCCOCCO)ccc21 [Comparator 1, 1-methyl-2-(6-trifluoromethoxy-benzothiazol-2-ylamino)-1H-benzoimidazole-5-carboxylic acid [2-(2-hydroxy-ethoxy)-ethyl]-amide, reference compound]","inhibition at 10 µM (hERG channel): 66%; concentration at 3 h ([2]; 3 h, read-out: Liver Conc uM (3 h)): 12.2 µM; concentration at 6 h ([2]; 6 h, read-out: Liver Conc uM (6 h)): 1.3 µM; EC50 ([1]; HepG2, human HMOX1, as listed in Table 5, read-out: HMOX1 EC50 h): 900 nM; concentration at 1 h ([3]; 1 hr): 2070 ± 318 ng/mL; concentration at 4 h ([3]; 4 hr): 288 ± 124 ng/mL"
300,260,0.9,"Cn1c(Nc2nc3ccc(C(F)(F)F)cc3o2)nc2cc(C(=O)NCCO)ccc21 [Example 33, N-(2-hydroxyethyl)-1-methyl-2-((6-(trifluoromethyl)benzo[d]oxazol-2-yl)amino)-1H-benzo[d]imidazole-5-carboxamide]",
